Data from article PMC8657435, “Adamantane-Substituted Purines and Their β-Cyclodextrin Complexes: Synthesis and Biological Activity” (International Journal of Molecular Sciences, 2021).
Where “and” joins values, the source holds several entries; their conditions need not be identical. Identical values can stand only once. Like-named read-outs stand apart in the source and are kept apart here.

What was measured:
CDK2/cyclin E [1] = biological target: T1, CDK2/cyclin E (Homo sapiens, UniProt P24941); assay: CDK2/cyclin E kinase inhibition assay ([γ-33P]ATP, peptide substrate); assay type: biochemical
Experimental: CDK2/cyclin E activity was assayed as previously described. Briefly, the kinase was assayed with [γ-^33P]ATP and suitable peptide substrates in a reaction buffer (60 mM HEPES-NaOH, pH 7.5, 3 mM MgCl2, 3 mM MnCl2, 3 μM Na-orthovanadate, 1.2 mM DTT, 2.5 μg/50 μL PEG20.000). The reactions were stopped by adding 5 µL of 3% aq. H3PO4. Aliquots were spotted onto P-81 phosphocellulose, washed with 0.5% aq. H3PO4 and air-dried. Kinase inhibition was quantified using an FLA-7000 digital image analyser.

MCF-7 [2] = assay: In vitro cytotoxicity / antiproliferative activity, resazurin viability assay, 72 h; assay type: cell-based, human
K-562 [3] = assay: as above; assay type: cell-based, human
K-562 [4] = system: K-562; parameters: method as in Popowycz et al. [51]; settings: single purine; ref Popowycz et al. [51]; cited from earlier work
MCF-7 [5] = system: MCF-7; parameters: method as in Popowycz et al. [51]; settings: single purine; ref Popowycz et al. [51]; cited from earlier work
CDK2/cyclin E [6] = biological target: T1, CDK2/cyclin E; settings: Figure 1; cited from earlier work
CDK1 = system: CDK1; parameters: method as in PMID 24900429; settings: no inhibition activity; read-out: IC50 towards CDK1; cited from earlier work
CDK2 = settings: no inhibition activity; read-out: IC50 towards CDK2; cited from earlier work
[7] = mixture purine·β-CD 1:1 molar ratio, read-out: CDK2/Cyclin E IC50, Purine·β-CD (1:1)
[8] = mixture purine·β-CD 1:10 molar ratio, read-out: CDK2/Cyclin E IC50, Purine·β-CD (1:10)
[9] = single purine, no β-CD, mean ± SD of duplicated experiments, read-out: CDK2/Cyclin E IC50, Purine
[10] = Homo sapiens, MCF7, single purine, 72 h, read-out: MCF-7 GI50, Purine
[11] = mixture purine·β-CD 1:1, 72 h, read-out: MCF-7 GI50, Purine·β-CD (1:1)
[12] = mixture purine·β-CD 1:10, 72 h, read-out: MCF-7 GI50, Purine·β-CD (1:10)
[13] = Homo sapiens, K562, single purine, 72 h, read-out: K-562 GI50, Purine
[14] = mixture purine·β-CD 1:1, 72 h, read-out: K-562 GI50, Purine·β-CD (1:1)
[15] = mixture purine·β-CD 1:10, 72 h, read-out: K-562 GI50, Purine·β-CD (1:10)
[16] = mixture purine·β-CD 1:1 molar ratio
[17] = mixture purine·β-CD 1:10 molar ratio
[18] = single purine, no β-CD, mean ± SD of duplicated experiments

Compound: CC(C)n1cnc2c(Nc3cccc(C(=O)C45CC6CC(CC(C6)C4)C5)c3)nc(NCCCO)nc21 [Compound 4a, (1-Adamantyl)[3-({2-[(3-hydroxypropyl)amino]-9-isopropyl-9H-purin-6-yl}amino)phenyl]methanone]
- IC50 (CDK2/cyclin E [1]; [7]): 5.5 ± 1.3 µM
- IC50 (CDK2/cyclin E [1]; [8]): > 40 µM
- IC50 (CDK2/cyclin E [1]; [9]): 2.55 ± 0.08 µM
- GI50 (MCF-7 [2]; [10]): > 6.25 µM
- GI50 (MCF-7 [2]; [11]): 15.7 ± 0.9 µM
- GI50 (MCF-7 [2]; [12]): > 40 µM
- GI50 (K-562 [3]; [13]): 6.16 µM
- GI50 (K-562 [3]; [14]): 15 ± 0.16 µM
- GI50 (K-562 [3]; [15]): > 40 µM

Compound: CC(C)n1cnc2c(Nc3cccc(C(O)C45CC6CC(CC(C6)C4)C5)c3)nc(NCCCO)nc21 (stereo not drawn) [Compound 4b, 3-{[6-({3-[1-Adamantyl(hydroxy)methyl]phenyl}amino)-9-isopropyl-9H-purin-2-yl]amino}propan-1-ol]
- CDK2/Cyclin E IC50, Purine·β-CD (1:1) (CDK2/cyclin E [1]; [16]): essentially consistent with their non-complexed forms
- IC50 (CDK2/cyclin E [1]; [7]): 0.16 µM
- IC50 (CDK2/cyclin E [1]; [8]): 0.3 ± 0.2 µM
- IC50 (CDK2/cyclin E [1]; [9]): 0.21 ± 0.02 µM
- Activity on CDK2/cyclin E, fold higher than bohemine (CDK2/cyclin E [1]; single purine, versus bohemine (4k)): 3.5 fold
- GI50 (MCF-7 [2]; [10]): > 6.25 µM
- GI50 (MCF-7 [2]; [11]): 32 ± 3 µM
- GI50 (MCF-7 [2]; [12]): > 40 µM
- GI50 (K-562 [3]; [13]): > 6.25 µM
- GI50 (K-562 [3]; [14]): 34.69 ± 0.14 µM
- GI50 (K-562 [3]; [15]): > 40 µM
- melting point: 88 to 93 °C

Compound: CC(C)n1cnc2c(Nc3cccc(CC45CC6CC(CC(C6)C4)C5)c3)nc(NCCCO)nc21 [Compound 4c, 3-{[6-{[3-(1-Adamantylmethyl)phenyl]amino}-9-isopropyl-9H-purin-2-yl]amino}propan-1-ol]
- IC50 (CDK2/cyclin E [1]; [7]): 1.85 µM
- IC50 (CDK2/cyclin E [1]; [8]): > 40 µM
- IC50 (CDK2/cyclin E [1]; [9]): > 10 µM and 12 µM
- GI50 (MCF-7 [2]; [10]): > 6.25 µM
- GI50 (MCF-7 [2]; [11]): > 40 µM
- GI50 (MCF-7 [2]; [12]): > 40 µM
- GI50 (K-562 [3]; [13]): > 6.25 µM
- GI50 (K-562 [3]; [14]): 28.7 ± 10.2 µM
- GI50 (K-562 [3]; [15]): > 40 µM
- melting point: 88 to 93 °C

Compound: CC(C)n1cnc2c(Nc3ccc(C(=O)C45CC6CC(CC(C6)C4)C5)cc3)nc(NCCCO)nc21 [Compound 4d, (1-Adamantyl)[4-({2-[(3-hydroxypropyl)amino]-9-isopropyl-9H-purin-6-yl}amino)phenyl]methanone]
- IC50 (CDK2/cyclin E [1]; [7]): 1.4 ± 0.5 µM
- IC50 (CDK2/cyclin E [1]; [8]): 7.57 µM
- IC50 (CDK2/cyclin E [1]; [9]): 0.6 ± 0.2 µM
- IC50 (CDK2/cyclin E [1]; single purine, read-out: CDK2/cyclin E IC50): 0.58 µM
- GI50 (MCF-7 [2]; [10]): 5.72 µM
- GI50 (MCF-7 [2]; [11]): 13.8 ± 1.4 µM
- GI50 (MCF-7 [2]; [12]): > 40 µM
- Efficacy on MCF-7, fold higher than bohemine (MCF-7 [2]; single purine): 4.7 fold
- Efficacy on MCF-7, fold higher than roscovitine (MCF-7 [2]; single purine): 2.2 fold
- GI50 (K-562 [3]; [13]): 5.45 µM
- GI50 (K-562 [3]; [14]): 16.5 ± 0.7 µM
- GI50 (K-562 [3]; [15]): > 40 µM
- Fold more potent at inhibiting cell proliferation on K-562 than bohemine (K-562 [3]; single purine): 17.8 fold
- Fold more potent at inhibiting cell proliferation on K-562 than roscovitine (K-562 [3]; single purine): 9.2 fold

Compound: CC(C)n1cnc2c(Nc3ccc(C(O)C45CC6CC(CC(C6)C4)C5)cc3)nc(NCCCO)nc21 (stereo not drawn) [Compound 4e, 3-{[6-({4-[1-Adamantyl(hydroxy)methyl]phenyl}amino)-9-isopropyl-9H-purin-2-yl]amino}propan-1-ol]
- CDK2/Cyclin E IC50, Purine·β-CD (1:1) (CDK2/cyclin E [1]; [16]): essentially consistent with their non-complexed forms
- IC50 (CDK2/cyclin E [1]; [7]): 1.53 µM
- IC50 (CDK2/cyclin E [1]; [8]): 26.1 µM
- IC50 (CDK2/cyclin E [1]; [9]): 1.6 ± 0.7 µM
- GI50 (MCF-7 [2]; [10]): 8.1 ± 0.7 µM
- GI50 (MCF-7 [2]; [11]): 17 ± 2 µM
- GI50 (MCF-7 [2]; [12]): > 40 µM
- GI50 (K-562 [3]; [13]): 10.1 ± 0.8 µM
- GI50 (K-562 [3]; [14]): 18.7 ± 0.6 µM
- GI50 (K-562 [3]; [15]): > 40 µM

Compound: CC(C)n1cnc2c(Nc3ccc(CC45CC6CC(CC(C6)C4)C5)cc3)nc(NCCCO)nc21 [Compound 4f, 3-{[6-{[4-(1-Adamantylmethyl)phenyl]amino}-9-isopropyl-9H-purin-2-yl]amino}propan-1-ol]
- CDK2/Cyclin E IC50, Purine·β-CD (1:1) (CDK2/cyclin E [1]; [16]): no activity
- IC50 (CDK2/cyclin E [1]; [7]): > 40 µM
- CDK2/Cyclin E IC50, Purine·β-CD (1:10) (CDK2/cyclin E [1]; [17]): no activity
- IC50 (CDK2/cyclin E [1]; [8]): > 40 µM
- CDK2/Cyclin E IC50, Purine (CDK2/cyclin E [1]; [18]): no activity
- IC50 (CDK2/cyclin E [1]; [9]): > 12.5 µM
- GI50 (MCF-7 [2]; [10]): > 12.5 µM
- GI50 (MCF-7 [2]; [11]): 32.9 ± 0.1 µM
- GI50 (MCF-7 [2]; [12]): > 40 µM
- GI50 (K-562 [3]; [13]): 10.4 ± 0.7 µM
- GI50 (K-562 [3]; [14]): 24 ± 3 µM
- GI50 (K-562 [3]; [15]): > 40 µM

Compound: CC(C)n1cnc2c(Nc3cccc(C(O)CC45CC6CC(CC(C6)C4)C5)c3)nc(NCCCO)nc21 (stereo not drawn) [Compound 4g, 3-{[6-({3-[2-(1-Adamantyl)-1-hydroxyethyl]phenyl}amino)-9-isopropyl-9H-purin-2-yl]amino}propan-1-ol]
- CDK2/Cyclin E IC50, Purine·β-CD (1:1) (CDK2/cyclin E [1]; [16]): essentially consistent with their non-complexed forms
- IC50 (CDK2/cyclin E [1]; [7]): 1.24 µM
- IC50 (CDK2/cyclin E [1]; [8]): 7.15 µM
- IC50 (CDK2/cyclin E [1]; [9]): 0.92 ± 0.18 µM
- GI50 (MCF-7 [2]; [10]): > 6.25 µM
- GI50 (MCF-7 [2]; [11]): 17 ± 2 µM
- GI50 (MCF-7 [2]; [12]): > 40 µM
- GI50 (K-562 [3]; [13]): > 6.25 µM
- GI50 (K-562 [3]; [14]): 33.6 ± 1.2 µM
- GI50 (K-562 [3]; [15]): > 40 µM
- melting point: 87 to 91 °C

Compound: CC(C)n1cnc2c(Nc3cccc(CCC45CC6CC(CC(C6)C4)C5)c3)nc(NCCCO)nc21 [Compound 4h, 3-{[6-({3-[2-(1-Adamantyl)ethyl]phenyl}amino)-9-isopropyl-9H-purin-2-yl]amino}propan-1-ol]
- CDK2/Cyclin E IC50, Purine·β-CD (1:1) (CDK2/cyclin E [1]; [16]): no activity
- IC50 (CDK2/cyclin E [1]; [7]): > 40 µM
- CDK2/Cyclin E IC50, Purine·β-CD (1:10) (CDK2/cyclin E [1]; [17]): no activity
- IC50 (CDK2/cyclin E [1]; [8]): > 40 µM
- CDK2/Cyclin E IC50, Purine (CDK2/cyclin E [1]; [18]): no activity
- IC50 (CDK2/cyclin E [1]; [9]): > 12.5 µM
- GI50 (MCF-7 [2]; [10]): > 12.5 µM
- GI50 (MCF-7 [2]; [11]): > 40 µM
- GI50 (MCF-7 [2]; [12]): > 40 µM
- GI50 (K-562 [3]; [13]): > 12.5 µM
- GI50 (K-562 [3]; [14]): > 40 µM
- GI50 (K-562 [3]; [15]): > 40 µM
- melting point: 72 to 78 °C

Compound: CC(C)n1cnc2c(NCc3cccc(C(=O)CC45CC6CC(CC(C6)C4)C5)c3)nc(NCCCO)nc21 [Compound 4i]
- IC50 (CDK2/cyclin E [1]; [7]): > 40 µM
- IC50 (CDK2/cyclin E [1]; [8]): 30.7 µM
- IC50 (CDK2/cyclin E [1]; [9]): > 10 µM and 14 µM
- GI50 (MCF-7 [2]; [10]): > 6.25 µM
- GI50 (MCF-7 [2]; [11]): 30 ± 5 µM
- GI50 (MCF-7 [2]; [12]): > 40 µM
- GI50 (K-562 [3]; [13]): > 6.25 µM
- GI50 (K-562 [3]; [14]): 19.8 ± 0.5 µM
- GI50 (K-562 [3]; [15]): > 40 µM
- melting point: 64 to 69 °C

Compound: CC(C)n1cnc2c(NCc3ccc(C(=O)CC45CC6CC(CC(C6)C4)C5)cc3)nc(NCCCO)nc21 [Compound 4j]
- IC50 (CDK2/cyclin E [1]; [7]): 15.7 µM
- IC50 (CDK2/cyclin E [1]; [8]): 20.9 µM
- IC50 (CDK2/cyclin E [1]; [9]): 3.26 ± 0.01 µM
- Activity on CDK2/cyclin E, fold higher than meta-analogue 4i (CDK2/cyclin E [1]; single purine, para versus meta): 4.3 fold
- GI50 (MCF-7 [2]; [10]): > 6.25 µM
- GI50 (MCF-7 [2]; [11]): 21.51 ± 0.04 µM
- GI50 (MCF-7 [2]; [12]): > 40 µM
- GI50 (K-562 [3]; [13]): > 6.25 µM
- GI50 (K-562 [3]; [14]): 17.7 ± 0.6 µM
- GI50 (K-562 [3]; [15]): > 40 µM

Compound: CC[C@H](CO)Nc1nc(NCc2ccccc2)c2ncn(C(C)C)c2n1 [Compound 4l, roscovitine]
- GI50 (K-562 [4]): 50.1 µM
- GI50 (MCF-7 [5]): 12.6 µM

Compound: CC(C)n1cnc2c(NC34CC5CC(CC(C5)C3)C4)nc(NCCCO)nc21 [Compound 4m, 6-[(1-adamantyl)amino]-2-[(3-hydroxypropyl)amino]-9-(propan-2-yl)purine]
- IC50 (CDK2/cyclin E [6]): > 100 µM
- IC50 (CDK1): > 100 µM
- IC50 (CDK2): > 100 µM

Compound: CC(C)n1cnc2c(NC34CC5CC(CC(C5)C3)C4)nc(NCC(O)CO)nc21 (stereo not drawn) [Compound 4n]
- IC50 (CDK2/cyclin E [6]): > 100 µM
